Experimental data published in US8101550B2, “Anthranilic acid diamide derivative with hetero-aromatic and hetero-cyclic substituents” (Bayer Cropscience AG, priority 2006, dated 2012).
Like-named read-outs stand apart in the source and are kept apart here.

Experiments:
[1] = log P determination by HPLC on reverse-phase column (EEC Directive 79/831 Annex V.A8); assay type: physicochemical
Summary of the method: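 Reverse-phase C18 HPLC at 43 °C, following EEC Directive 79/831 Annex V.A8. Acidic LC-MS used pH 2.7 eluents (0.1% aqueous formic acid and acetonitrile with 0.1% formic acid) on a 10–95% acetonitrile linear gradient. Log P was interpolated linearly from retention times against unbranched C3–C16 alkan-2-ones of known log P.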

[2] = tested on: caterpillars of the armyworm (Spodoptera frugiperda); experiment: Spodoptera frugiperda test (cabbage leaves, immersion); assay type: in vivo; settings: cabbage leaves immersed
Experimental: An appropriate preparation of active compound is prepared by mixing 1 part by weight of active compound with the stated amounts of solvent and emulsifier and diluting the concentrate with emulsifier-containing water to the desired concentration.
Cabbage leaves (Brassica oleracea) are treated by immersion into a preparation of active compound at the desired concentration and, are populated with caterpillars of the armyworm (Spodoptera frugiperda) while the leaves are still wet.
After the desired time the effect in % is determined. 100% means that all of the caterpillars have been killed; 0% means that no caterpillars have been killed.
Cabbage leaves (Brassica oleracea) are treated by immersion into a preparation of active compound at the desired concentration and are populated with caterpillars of the armyworm (Spodoptera frugiperda) while the leaves are still wet.

Structure (SMILES)	logP ([1]; HPLC on reverse-phase column)	Kill level after 7 d in % ([2]; 100 g/ha)	further results
CNC(=O)c1cc(Cl)cc(C)c1NC(=O)c1cc(Cn2cc(Cl)c(C(F)(F)F)n2)nn1-c1ncccc1Cl [I-1-17]	3.35	100%	
CNC(=O)c1cc(Br)cc(C)c1NC(=O)c1cc(Cn2nc(C(F)(F)F)nc2C(F)(F)F)nn1-c1ncccc1Cl [I-1-36]	3.52	100%	
Cc1cc(Cl)cc(C(=O)NC(C)C)c1NC(=O)c1cc(Cn2nc(C(F)(F)C(F)(F)F)nc2C(F)(F)C(F)(F)F)nn1-c1ncccc1Cl [I-1-29]	4.64	100%	
CNC(=O)c1cc(Cl)cc(C)c1NC(=O)c1cc(Cn2nc(C(F)(F)F)cc2C(F)(F)F)nn1-c1ncccc1Cl [I-1-1, 5-(3,5-Bis-trifluoromethylpyrazol-1-ylmethyl)-2-(3-chloropyridin-2-yl)-2H-pyrazole-3-carboxylic acid 4-chloro-2-methyl-6-methylcarbamoylphenyl amide]		100%	chromatographic logP ([1]; pH 2.7): 3.67
CNC(=O)c1cc(Cl)cc(C)c1NC(=O)c1cc(Cn2nc(C(F)(F)C(F)(F)F)nc2C(F)(F)C(F)(F)F)nn1-c1ncccc1Cl [I-1-26]	4.17	100%	
CNC(=O)c1cc(Cl)cc(C)c1NC(=O)c1cc(Cn2nc(C(F)(F)F)cc2C(F)(F)F)nn1-c1ccccc1Cl [I-1-11]	4.12	100%	
Cc1cc(Br)cc(C(=O)NC(C)C)c1NC(=O)c1cc(Cn2nc(C(F)(F)F)cc2C(F)(F)F)nn1-c1ncccc1Cl [I-1-20]	4.16	100%	
Cc1cc(Cl)cc(C(=O)NC(C)C)c1NC(=O)c1cc(Cn2cc(C#N)cn2)nn1-c1ncccc1Cl [I-1-8]	2.57	100%	Kill level after 7 d in % ([2]; 0.8 g/ha): 100%
Cc1cc(Cl)cc(C(=O)NC(C)C)c1NC(=O)c1cc(Cn2nc(C(F)(F)C(F)(F)F)nc2C(F)(F)F)nn1-c1ncccc1Cl [I-1-23]	4.25	100%	
CNC(=O)c1cc(Cl)cc(C)c1NC(=O)c1cc(Cn2nc(C(F)(F)C(F)(F)F)cc2C(F)(F)C(F)(F)F)nn1-c1ncccc1Cl [I-1-27]	4.45		Kill level after 7 d in % ([2]; 20 g/ha): 83%
Cc1cc(Cl)cc(C(=O)NC(C)C)c1NC(=O)c1cc(Cn2nc(C(F)(F)F)nc2C(F)(F)F)nn1-c1ncccc1Cl [I-1-5]	3.88	100%	Kill level after 7 d in % ([2]; 0.8 g/ha): 100%
Cc1cc(Cl)cc(C(=O)NC(C)C)c1NC(=O)c1cc(Cn2nc(C(F)(F)C(F)(F)F)c(C(F)(F)F)c2F)nn1-c1ncccc1Cl [I-1-28]	4.63	100%	
Cc1cc(Cl)cc(C(=O)NC(C)C)c1NC(=O)c1cc(Cn2nc(C(F)(F)F)cc2C(F)(F)F)nn1-c1ccccc1Cl [I-1-10]	4.70	100%	
Cc1cc(Cl)cc(C(=O)NC(C)C)c1NC(=O)c1cc(Cn2cc(Cl)c(C(F)(F)C(F)(F)F)n2)nn1-c1ncccc1Cl [I-1-31]	4.21	100%	
Cc1cc(Cl)cc(C(=O)NCC#N)c1NC(=O)c1cc(Cn2cc(Cl)c(C(F)(F)C(F)(F)F)n2)nn1-c1ncccc1Cl [I-1-32]	3.70	100%	
CNC(=O)c1cc(Cl)cc(C)c1NC(=O)c1cc(Cn2cc(I)c(C(F)(F)C(F)(F)F)n2)nn1-c1ncccc1Cl [I-1-16]	3.79	100%	
CNC(=O)c1cc(Br)cc(C)c1NC(=O)c1cc(Cn2cc(C(F)(F)C(F)(F)F)c(C(F)(F)C(F)(F)F)n2)nn1-c1ncccc1Cl [I-1-25]	4.39	100%	
Cc1cc(Cl)cc(C(=O)NC(C)C)c1NC(=O)c1cc(Cn2nc(C(F)(F)F)nc2C(F)(F)F)nn1-c1c(Cl)cccc1Cl [I-1-40]	4.58	100%	
Cc1cc(Cl)cc(C(=O)NC(C)C)c1NC(=O)c1cc(Cn2cncn2)nn1-c1ncccc1Cl [I-1-21]	2.02	100%	
CNC(=O)c1cc(Cl)cc(C)c1NC(=O)c1cc(Cn2cc(Br)c(C(F)(F)C(F)(F)F)n2)nn1-c1ncccc1Cl [I-1-34]	3.80	100%	
Cc1cc(Br)cc(C(=O)NC(C)C)c1NC(=O)c1cc(Cn2nc(C(F)(F)C(F)(F)F)nc2C(F)(F)C(F)(F)F)nn1-c1ncccc1Cl [I-1-37]	4.73	100%	
CNC(=O)c1cc(Cl)cc(C)c1NC(=O)c1cc(Cn2nc(C(F)(F)F)nc2C(F)(F)F)nn1-c1ncccc1Cl [I-1-35]	3.43	100%	

Structure (SMILES)	logP ([1]; HPLC on reverse-phase column)	Kill level after 7 d in % ([2]; 100 g/ha)	further results
Cc1cc(Br)cc(C(=O)NCC#N)c1NC(=O)c1cc(Cn2cc(C(F)(F)C(F)(F)F)c(C(F)(F)C(F)(F)F)n2)nn1-c1ncccc1Cl [I-1-33]	4.28	100%	
Cc1cc(Cl)cc(C(=O)NC(C)C)c1NC(=O)c1cc(Cn2cccn2)nn1-c1ncccc1Cl [I-1-9]	2.45	100%	
Cc1cc(Cl)cc(C(=O)NC(C)C)c1NC(=O)c1cc(Cn2ccc(C(F)(F)C(F)(F)F)n2)nn1-c1ncccc1Cl [I-1-18]	3.75	100%	
Cc1cc(Cl)cc(C(=O)NC(C)C)c1NC(=O)c1cc(Cn2ccc(C(F)(F)F)n2)nn1-c1ncccc1Cl [I-1-6]	3.27	100%	Kill level after 7 d in % ([2]; 0.8 g/ha): 100%
Cc1cc(Cl)cc(C(=O)NC(C)C)c1NC(=O)c1cc(Cn2cc(C(F)(F)C(F)(F)F)c(C(F)(F)C(F)(F)F)n2)nn1-c1ncccc1Cl [I-1-12]	4.89	100%	
Cc1cc(Cl)cc(C(=O)NC(C)C)c1NC(=O)c1cc(Cn2nc(C(F)(F)F)cc2C(F)(F)F)nn1-c1ncccc1Cl [I-1-2]	4.08	100%	
Cc1cc(F)cc(C(=O)NC(C)C)c1NC(=O)c1cc(Cn2cc(Cl)c(C(F)(F)C(F)(F)F)n2)nn1-c1ncccc1Cl [I-1-224]			logP [1]: 3.89
CNC(=O)c1cc(I)cc(C)c1NC(=O)c1cc(Cn2nc(C(F)F)c([N+](=O)[O-])c2C(F)F)nn1-c1ncccc1Cl [I-1-278]			logP [1]: 3.25
CCNC(=O)OC[C@H](C)NC(=O)c1cc(Cl)cc(C)c1NC(=O)c1cc(Cn2nc(C(F)(F)F)nc2C(F)(F)F)nn1-c1ncccc1Cl [I-1-77]	3.58		
CNC(=O)c1cc(Br)cc(C)c1NC(=O)c1cc(Cn2cc(Br)c(C(F)(F)F)n2)nn1-c1ncccc1Cl [I-1-68]	3.46		
Cc1cc(Cl)cc(C(=O)NC(C)(C)C[S+](C)[O-])c1NC(=O)c1cc(Cn2nc(C(F)(F)F)nc2C(F)(F)F)nn1-c1ncccc1Cl (stereo not drawn) [I-1-137]	3.22		
Cc1cc(Cl)cc(C(N)=O)c1NC(=O)c1cc(Cn2cnc(C(F)(F)C(F)(F)F)n2)nn1-c1ncccc1Cl [I-1-330]			logP [1]: 2.39
CNC(=O)c1cc(Cl)cc(C)c1NC(=O)c1cc(Cn2cc(I)c(C(F)(F)F)n2)nn1-c1ncccc1Cl [I-1-62]	3.41		
CSCC(C)(C)NC(=O)c1cc(Cl)cc(C)c1NC(=O)c1cc(Cn2cc(Br)c(C(F)(F)F)n2)nn1-c1ncccc1Cl [I-1-131]	4.48		
CNC(=O)c1cc(Cl)cc(C)c1NC(=O)c1cc(Cn2nnn(-c3cc(Cl)cc(Cl)c3)c2=O)nn1-c1ncccc1Cl [I-1-96]	3.90		
Cc1cc(I)cc(C(=O)NC(C2CC2)C2CC2)c1NC(=O)c1cc(Cn2nc(C(F)(F)F)nc2C(F)(F)F)nn1-c1ncccc1Cl [I-1-286]			logP [1]: 4.52
Cc1cc(I)cc(C(=O)NCC2CC2)c1NC(=O)c1cc(Cn2nc(C(F)(F)F)nc2C(F)(F)F)nn1-c1ncccc1Cl [I-1-253]			logP [1]: 4.13
Cc1cc(Cl)cc(C(=O)NC(C)C)c1NC(=O)c1cc(Cn2nc(C(F)(F)F)cc2C(F)(F)F)nn1-c1ncc(C(F)(F)F)cc1Cl [I-2-11]			logP ([1]; HPLC, reverse-phase column (C 18), 43° C., acidic range pH 2.7): 4.78
Cc1cc(Cl)cc(C(=O)NC(C)C)c1NC(=O)c1cc(Cn2nnc(-c3ccc(C(F)(F)F)cc3)n2)nn1-c1ncccc1Cl [I-1-105]	4.14		
Cc1cc(C#N)cc(C(=O)NC2CC2)c1NC(=O)c1cc(Cn2nc(C(F)(F)F)nc2C(F)(F)F)nn1-c1ncccc1Cl [I-1-178]			logP [1]: 3.31
CNC(=O)c1cc(Cl)cc(C)c1NC(=O)c1cc(Cn2nnc(-c3cc(C(F)(F)F)cc(C(F)(F)F)c3)n2)nn1-c1ncccc1Cl [I-1-112]	4.28		
Cc1cc(Br)cc(C(=O)NCC#N)c1NC(=O)c1cc(Cn2cc(Br)c(C(F)(F)F)n2)nn1-c1ncccc1Cl [I-1-97]	3.45		
